Measured values from patent publication US7071165B2, “LHRH antagonist peptides” (Indiana University Research and Technology Corporation, priority 1995, dated 2006).

Each substance was assayed on ovulation in female rats (assay: Anti-ovulatory activity (AOA) in vivo assay in rats). Settings: dose 1 μg per rat.
Parameters: species or system rat
Description: As used herein, “LHRH antagonist peptide” is intended to include peptides and peptide analogs which inhibit LHRH activity (i.e., has “LHRH antagonist activity”) in vivo or in vitro. Candidate LHRH antagonist peptides can be assayed, for example, in the animal model described in Corbin and Beattie, Endocrine Res. Commun. 2:1 (1975) (and see infra). In this assay, the LHRH antagonistic activity of a candidate compound is assayed by measuring the antiovulatory activity (AOA) of the compound in rats.
Anti-ovulatory activity (AOA) was measured by an in vivo assay in rats, as described in Corbin and Beattie, Endocrine Res. Commun. 2:1 (1975). In brief, female rats are injected with a candidate LHRH antagonist on the day of proestrus; in general, the candidate LHRH antagonist was dissolved in 0.1% DMSO. The ability of the candidate peptide to inhibit ovulation is measured by determining the number of rats which ovulate. A candidate peptide is considered to have LHRH antagonist qualities if it inhibits ovulation in at least 50% of the treated rats at a dose of 5 μg per rat. Preferred LHRH antagonists inhibit ovulation in at least 50% of rats at a dose of 2 μg per rat, more preferably at a dose of […], and still more preferably at a dose of 0.5 μg per rat.
In the case of “Ac-D-Nal^1,4-Cl-D-Phe^2,D-Pal^3,D-Lys(COCH2S^+Me2)^6, D-Ala^10-LHRH.2TFA [Compound 4014]”, the “AO activity (AOA): rats which ovulate / rats treated” value is reported as 0/8@1.00. “Ac-D-Nal^1, 4-Cl-D-Phe^2, D-Pal(N—O)^3, D-Pal(iPr)^6, Lys(iPr)^8, D-Ala^10-LHRH.2TFA [Compound 3882]” was tested, and the “AO activity (AOA): rats which ovulate / rats treated” value was 6/8@1.0. In the case of “Ac-D-Nal^1, 4-Cl-D-Phe^2, D-Pal^3, Asn^4, Tyr^5, D-Cit^6, Lys(iPr)^8, D-Ala^10-LHRH.TFA [Compound 3434]”, the “AO activity (AOA): rats which ovulate / rats treated” value is reported as 4/8@1 μg. “Ac-D-Nal^1, 4-Cl-D-Phe^2, D-Pal^3, Asn^5, D-Pal(iPr)^6, Lys(iPr)^8, D-Ala^10-LHRH.2TFA [Compound 3744]” was tested, and the “AO activity (AOA): rats which ovulate / rats treated” value was 7/8@1.0. With “Ac-D-Nal^1, 4-Cl-D-Phe^2, D-Pal^3, Cit^5, D-Cit^6, Lys(iPr)^8, D-Ala^10-LHRH.TFA [Compound 3431]” the “AO activity (AOA): rats which ovulate / rats treated” value was 6/8@1 μg. “Ac-D-Nal^1, 4-Cl-D-Phe^2, D-Pal^3, Cit^5, D-Pal(iPr)^6, Lys(iPr)^8, D-Ala^10-LHRH.TFA [Compound 3435]” was tested, and the “AO activity (AOA): rats which ovulate / rats treated” value was 7/8@1 μg. With “Ac-D-Nal^1, 4-Cl-D-Phe^2, D-Pal^3, Cit^5, D-Pal^6, Lys(iPr)^8, D-Ala^10-LHRH.TFA [Compound 3433]” the “AO activity (AOA): rats which ovulate / rats treated” value was 5/8@1 μg. “Ac-D-Nal^1, 4-Cl-D-Phe^2, D-Pal^3, D-Arg^6, Dap(COCH2S^+Me2)^8, D-Ala^10-LHRH.2TFA [Compound 4023]” was tested, and the “AO activity (AOA): rats which ovulate / rats treated” value was 0/8@1.00. With “Ac-D-Nal^1, 4-Cl-D-Phe^2, D-Pal^3, D-Arg^6, Lys(COCH2S^+Me2)^8, D-Ala^10-LHRH.2TFA [Compound 4015]” the “AO activity (AOA): rats which ovulate / rats treated” value was 1/8@1.00. “Ac-D-Nal^1, 4-Cl-D-Phe^2, D-Pal^3, D-Arg^6, Met^8, D-Ala^10-LHRH.TFA [Compound 3995]” was tested, and the “AO activity (AOA): rats which ovulate / rats treated” value was 5/8@1.00. For “Ac-D-Nal^1, 4-Cl-D-Phe^2, D-Pal^3, D-Arg^6, Orn(COCH2SMe)^8, D-Ala^10-LHRH.2TFA [Compound 3994]”, the “AO activity (AOA): rats which ovulate / rats treated” value was 6/8@1.00. For “Ac-D-Nal^1, 4-Cl-D-Phe^2, D-Pal^3, D-Dap(COCH2S^+Me2)^6, D-Ala^10-LHRH.2TFA [Compound 3969]”, the “AO activity (AOA): rats which ovulate / rats treated” value was 3/8@1.00. For “Ac-D-Nal^1, 4-Cl-D-Phe^2, D-Pal^3, D-Gln(iPr)^6, Lys(iPr)^8, D-Ala^10-LHRH.2TFA [Compound 3545]”, the “AO activity (AOA): rats which ovulate / rats treated” value was 7/8@1 μg. “Ac-D-Nal^1, 4-Cl-D-Phe^2, D-Pal^3, D-Glu(Amp)^6, Lys(iPr)^8, D-Ala^10-LHRH.TFA [Compound 3511]” was tested, and the “AO activity (AOA): rats which ovulate / rats treated” value was 7/8@1 μg. For “Ac-D-Nal^1, 4-Cl-D-Phe^2, D-Pal^3, D-Glu(CSer)^6, Lys(iPr)^8, D-Ala^10-LHRH.2TFA [Compound 3550]”, the “AO activity (AOA): rats which ovulate / rats treated” value was 6/8@1 μg. In the case of “Ac-D-Nal^1, 4-Cl-D-Phe^2, D-Pal^3, D-Glu(Dea)^6, Lys(iPr)^8, D-Ala^10-LHRH.TFA [Compound 3543]”, the “AO activity (AOA): rats which ovulate / rats treated” value is reported as 6/8@1 μg. For “Ac-D-Nal^1, 4-Cl-D-Phe^2, D-Pal^3, D-Glu(Mop)^6, Lys(iPr)^8, D-Ala^10-LHRH.2TFA [Compound 3549]”, the “AO activity (AOA): rats which ovulate / rats treated” value was 6/8@1 μg. For “Ac-D-Nal^1, 4-Cl-D-Phe^2, D-Pal^3, D-Glu^6, Lys(iPr)^8, D-Ala^10-LHRH.TFA [Compound 3552]”, the “AO activity (AOA): rats which ovulate / rats treated” value was 8/8@1 μg. With “Ac-D-Nal^1, 4-Cl-D-Phe^2, D-Pal^3, D-HomoArg(NO2)^6, Lys(iPr)^8, D-Ala^10-LHRH.TFA [Compound 3436]” the “AO activity (AOA): rats which ovulate / rats treated” value was 7/8@1 μg. “Ac-D-Nal^1, 4-Cl-D-Phe^2, D-Pal^3, D-Lys(2-ClNic)^6, Lys(iPr)^8, D-Ala^10-LHRH.TFA [Compound 3441]” was tested, and the “AO activity (AOA): rats which ovulate / rats treated” value was 8/8@1 μg. For “Ac-D-Nal^1, 4-Cl-D-Phe^2, D-Pal^3, D-Lys(2-pyrimidylthio)acetic)^6, Lys(iPr)^8, D-Ala^10-LHRH.TFA [Compound 3960]”, the “AO activity (AOA): rats which ovulate / rats treated” value was 5/8@1.00. For “Ac-D-Nal^1, 4-Cl-D-Phe^2, D-Pal^3, D-Lys(3-pyridineacetic)^6, Lys(iPr)^8, D-Ala^10-LHRH.TFA [Compound 3440]”, the “AO activity (AOA): rats which ovulate / rats treated” value was 2/8@1 μg. “Ac-D-Nal^1, 4-Cl-D-Phe^2, D-Pal^3, D-Lys(3-Δ-Pro)^6, Lys(iPr)^8, D-Ala^10-LHRH-TFA [Compound 3721]” was tested, and the “AO activity (AOA): rats which ovulate / rats treated” value was 4/8@1.0. In the case of “Ac-D-Nal^1, 4-Cl-D-Phe^2, D-Pal^3, D-Lys(AcGly)^6, Lys(iPr)^8, D-Ala^10-LHRH.TFA [Compound 3759]”, the “AO activity (AOA): rats which ovulate / rats treated” value is reported as 5/8@1.0. “Ac-D-Nal^1, 4-Cl-D-Phe^2, D-Pal^3, D-Lys(Ala)^6, Lys(iPr)^8, D-Ala^10-LHRH.TFA [Compound 3771]” was tested, and the “AO activity (AOA): rats which ovulate / rats treated” value was 7/8@1.0. “Ac-D-Nal^1, 4-Cl-D-Phe^2, D-Pal^3, D-Lys(Dodac)^6, Lys(iPr)^8, D-Ala^10-LHRH.TFA [Compound 3803]” was tested, and the “AO activity (AOA): rats which ovulate / rats treated” value was 2/8@1.0. With “Ac-D-Nal^1, 4-Cl-D-Phe^2, D-Pal^3, D-Lys(Glycolyl)^6, Lys(iPr)^8, D-Ala^10-LHRH.TFA [Compound 3437]” the “AO activity (AOA): rats which ovulate / rats treated” value was 7/8@1 μg. For “Ac-D-Nal^1, 4-Cl-D-Phe^2, D-Pal^3, D-Lys(Gulonyl)^6, Lys(iPr)^8, D-Ala^10-LHRH.TFA [Compound 3506]”, the “AO activity (AOA): rats which ovulate / rats treated” value was 4/8@1 μg. “Ac-D-Nal^1, 4-Cl-D-Phe^2, D-Pal^3, D-Lys(Hippic)^6, Lys(iPr)^8, D-Ala^10-LHRH.TFA [Compound 3758]” was tested, and the “AO activity (AOA): rats which ovulate / rats treated” value was 5/8@1.0. For “Ac-D-Nal^1, 4-Cl-D-Phe^2, D-Pal^3, D-Lys(HomoPro)^6, Lys(iPr)^8, D-Ala^10-LHRH.TFA [Compound 3439]”, the “AO activity (AOA): rats which ovulate / rats treated” value was 2/8@1 μg. In the case of “Ac-D-Nal^1, 4-Cl-D-Phe^2, D-Pal^3, D-Lys(ONic)^6, Lys(iPr)^8, D-Ala^10-LHRH.TFA [Compound 3507]”, the “AO activity (AOA): rats which ovulate / rats treated” value is reported as 1/8@μg. With “Ac-D-Nal^1, 4-Cl-D-Phe^2, D-Pal^3, D-Lys(Orotic)^6, Lys(iPr)^8, D-Ala^10-LHRH.TFA [Compound 3762]” the “AO activity (AOA): rats which ovulate / rats treated” value was 6/8@1.0.

Same assay, conditions: dose 2 μg per rat
For “Ac-D-Nal^1, 4-Cl-D-Phe^2, D-Pal^3, D-Glu(PEG)^6, Lys(iPr)^8, D-Ala^10-LHRH.2TFA [Compound 3542]”, the “AO activity (AOA): rats which ovulate / rats treated” value was 7/8@2 μg.

Same assay, conditions: dose 5 μg per rat
For “Ac-D-(or L)-9-anthryl-Ala^1, 4-Cl-D-Phe^2, D-Pal^3, D-Cit^6-Lys(iPr)^8, D-Ala^10-LHRH.TFA [Compound 3366]”, the “AO activity (AOA): rats which ovulate / rats treated” value was 6/8@5 μg. For “Ac-D-Nal-4-Cl-D-Phe^2, D-Pal^3, D-Lys(Ac-D-Nal^1 , 4-Cl-D-Phe^2, D-Pal^3, Ser)^6, Lys(iPr)^8, D-Ala^10-LHRH.TFA [Compound 3722]”, the “AO activity (AOA): rats which ovulate / rats treated” value was 8/8@5.0. With “Ac-D-Nal^1, 4-Cl-D-Phe^2, D-Pal^3, Arg^5, D-His^6, Trp^7, Orn^8, D-Ala^10-LHRH.TFA [Compound 3854]” the “AO activity (AOA): rats which ovulate / rats treated” value was 6/8@5.0.

Same assay, conditions: rat, in vivo
For “Ac-D-Nal^1, 4-Cl-D-Phe^2, D-Pal^3, D-Arg^6, Dap(COCH2S^+Me2)^8, D-Ala^10-LHRH.2TFA [Compound 4023]”, the “AO activity (AOA), in words” value was “effective”. “Ac-D-Nal^1, 4-Cl-D-Phe^2, D-Pal^3, D-Lys(COCH2CH2N(Et)2)^6, D-Ala^10-LHRH.2TFA [Compound 3949]” was tested, and the “AO activity (AOA), in words” value was “low activity”. For “Ac-D-Nal^1, 4-Cl-D-Phe^2, D-Pal^3, D-Lys(ONic)^6, Lys(iPr)^8, D-Ala^10-LHRH.TFA [Compound 3507]”, the “AO activity (AOA), in words” value was “high AOA”.
